≈ marks a conversion by molar mass, not a printed value.
Experiments:
E. faecalis VSE 1 = assay: MIC, broth microdilution, vancomycin-sensitive E. faecalis (VSE 1); assay type: cell-based, Enterococcus faecalis; settings: for MIC: Enterococcus faecalis VSE 1 (vancomycin-sensitive), read-out: MIC; for MIC-fold improvement vs. vancomycin: VSE 1, ratio of MIC of vancomycin and MIC of analogue
Method in brief: (§1)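 Susceptibility was scored by broth microdilution (CLSI). In one instance each vancomycin analog or control antibiotic was tested in the presence of vancomycin, 10 μM final, and ultrapure water plus non-inoculated broth were included as controls.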

E. faecalis VRE 6 = assay: MIC, broth microdilution, vancomycin-resistant E. faecalis VRE 6 (VanA); assay type: cell-based, Enterococcus faecalis; settings: for MIC: Enterococcus faecalis VRE 6 (vancomycin-resistant), read-out: MIC; for MIC-fold improvement vs. vancomycin: VRE 6, ratio of MIC of vancomycin and MIC of analogue
Method in brief: as §1

E. faecalis VRE 53 = assay: MIC, broth microdilution, vancomycin-resistant E. faecalis VRE 53 (VanA); assay type: cell-based, Enterococcus faecalis; settings: for MIC: Enterococcus faecalis VRE 53 (vancomycin-resistant), read-out: MIC; for MIC-fold improvement vs. vancomycin: VRE 53, ratio of MIC of vancomycin and MIC of analogue
Method in brief: as §1

E. faecalis VRE 29 = assay: MIC, broth microdilution, vancomycin-resistant E. faecalis VRE 29 (VanA); assay type: cell-based, Enterococcus faecalis; settings: for MIC: Enterococcus faecalis VRE 29 (vancomycin-resistant), read-out: MIC; for MIC-fold improvement vs. vancomycin: VRE 29, ratio of MIC of vancomycin and MIC of analogue
Method in brief: as §1

E. faecalis VRE 37 = assay: MIC, broth microdilution, vancomycin-resistant E. faecalis VRE 37 (VanA); assay type: cell-based, Enterococcus faecalis; settings: for MIC: Enterococcus faecalis VRE 37 (vancomycin-resistant), read-out: MIC; for MIC-fold improvement vs. vancomycin: VRE 37, ratio of MIC of vancomycin and MIC of analogue
Method in brief: as §1

[1] = tested on: Murine leukemia (L1210) cells; assay: Cytostatic activity, L1210 cell proliferation; assay type: cell-based; settings: mean ± SD of three experiments; highest concentration tested 250 µM; 2 days; read-out: Toxicity (IC50) L1210
Method in brief: (§2)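 Readout: Coulter cell number after drug exposure at 37°C. Durations differ by line (L1210 2 days; CEM 3 days; HeLa 4 days). Stock suspension 300,000–500,000 cells/mL, diluted by mixing with compound. Endpoint: IC50 vs negative control.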

[2] = tested on: human T-lymphocyte (CEM) cells; assay: Cytostatic activity, CEM cell proliferation; assay type: cell-based; settings: mean ± SD of three experiments; highest concentration tested 250 µM; 3 days; read-out: Toxicity (IC50) CEM
Method in brief: as §2

[3] = tested on: human cervix carcinoma (HeLa) cells; assay: Cytostatic activity, HeLa cell proliferation; assay type: cell-based; settings: mean ± SD of three experiments; highest concentration tested 250 µM; 4 days; read-out: Toxicity (IC50) HeLa
Method in brief: as §2

[4] = tested on: L1210, CEM and HeLa cell lines; assay: Cytostatic activity, average or summary over L1210, CEM and HeLa; assay type: cell-based; settings: average of L1210, CEM and HeLa; read-out: Toxicity (IC50) Average
Method in brief: as §2

[5] = tested on: S. aureus VSSA (ATCC 6538); assay: MIC, broth microdilution, vancomycin-sensitive S. aureus (VSSA/MSSA, ATCC 6538); assay type: cell-based, Staphylococcus aureus; settings: for MIC: Staphylococcus aureus VSSA, read-out: MIC; for MIC-fold improvement vs. vancomycin: VSSA, ratio of MIC of vancomycin and MIC of analogue
Method in brief: as §1

S. aureus VISA/HIP5827 = assay: MIC, broth microdilution, vancomycin-intermediate S. aureus VISA HIP5827; assay type: cell-based, Staphylococcus aureus; settings: for MIC: Staphylococcus aureus VISA/HIP5827, read-out: MIC; for MIC-fold improvement vs. vancomycin: VISA/HIP5827, ratio of MIC of vancomycin and MIC of analogue
Method in brief: as §1

S. aureus VRSA = assay: MIC, broth microdilution, vancomycin-resistant S. aureus (VRSA); assay type: cell-based, Staphylococcus aureus; settings: for MIC: Staphylococcus aureus VRSA, read-out: MIC; for MIC-fold improvement vs. vancomycin: VRSA, ratio of MIC of vancomycin and MIC of analogue
Method in brief: as §1

MRSA KS2 = assay: MIC, broth microdilution, MRSA KS2; assay type: cell-based, Staphylococcus aureus; settings: for MIC-fold improvement vs. vancomycin: MRSA KS2, ratio of MIC of vancomycin and MIC of analogue; for MIC: Staphylococcus aureus MRSA KS2, read-out: MIC
Method in brief: as §1

MRSA KS6 = assay: MIC, broth microdilution, MRSA KS6; assay type: cell-based, Staphylococcus aureus; settings: for MIC-fold improvement vs. vancomycin: MRSA KS6, ratio of MIC of vancomycin and MIC of analogue; for MIC: Staphylococcus aureus MRSA KS6, read-out: MIC
Method in brief: as §1

MRSA KS89 = assay: MIC, broth microdilution, MRSA KS89; assay type: cell-based, Staphylococcus aureus; settings: for MIC-fold improvement vs. vancomycin: MRSA KS8, ratio of MIC of vancomycin and MIC of analogue; for MIC: Staphylococcus aureus MRSA KS8, read-out: MIC
Method in brief: as §1

MRSA KS1 = assay: MIC, broth microdilution, MRSA KS1; assay type: cell-based, Staphylococcus aureus; settings: for MIC-fold improvement vs. vancomycin: MRSA KS1, ratio of MIC of vancomycin and MIC of analogue; for MIC: Staphylococcus aureus MRSA KS1, read-out: MIC
Method in brief: as §1

Question: Which MIC (E. faecalis VSE 1) does the source give for `CCCCCCc1ccc(NC(=O)CNC(=O)[C@H]2NC(=O)[C@H]3NC(=O)[C@H](NC(=O)[C@@H]4NC(=O)[C@H](CC(N)=O)NC(=O)[C@H](NC(=O)[C@@H](CC(C)C)NC)[C@H](O)c5ccc(c(Cl)c5)Oc5cc4cc(c5O[C@@H]4O[C@H](CO)[C@@H](O)[C@H](O)[C@H]4O[C@H]4C[C@](C)(N)[C@H](O)[C@H](C)O4)Oc4ccc(cc4Cl)[C@H]3O)c3ccc(O)c(c3)-c3c(O)cc(O)cc32)cc1` [Vanc-75] here?
Answer: Its MIC is 0.78 µM (≈ 1.3 µg/mL).

Question: What about the “MIC-fold improvement vs. vancomycin” value (E. faecalis VSE 1) of the same compound?
Answer: Its value is 2.

Question: What about the MIC (E. faecalis VRE 6) of the same compound?
Answer: Its MIC is 3.13 µM (≈ 5.21 µg/mL).

Question: And the “MIC-fold improvement vs. vancomycin” value (E. faecalis VRE 6)?
Answer: The value was 64.

Question: And the MIC (E. faecalis VRE 53)?
Answer: The MIC was 3.13 µM (≈ 5.21 µg/mL).

Question: And the “MIC-fold improvement vs. vancomycin” value (E. faecalis VRE 53)?
Answer: The value was 128.

Question: And the MIC (E. faecalis VRE 29)?
Answer: The MIC was 3.13 µM (≈ 5.21 µg/mL).

Question: What about the “MIC-fold improvement vs. vancomycin” value (E. faecalis VRE 29) of the same compound?
Answer: The value was 128.

Question: And the MIC (E. faecalis VRE 37)?
Answer: The MIC was 3.13 µM (≈ 5.21 µg/mL).

Question: And the “MIC-fold improvement vs. vancomycin” value (E. faecalis VRE 37)?
Answer: Its value is 128.

Question: What about the IC50 [1] of the same compound?
Answer: Its IC50 is 17 ± 7 µM.

Question: And the IC50 [2]?
Answer: Its IC50 is 15 ± 3 µM.

Question: What about the IC50 [3] of the same compound?
Answer: Its IC50 is 83 ± 4 µM.

Question: And the IC50 [4]?
Answer: The IC50 was 38 µM.

Question: What about the MIC [5] of the same compound?
Answer: The MIC was 0.78 µM (≈ 1.3 µg/mL).

Question: What about the “MIC-fold improvement vs. vancomycin” value [5] of the same compound?
Answer: The value was 1.

Question: What about the MIC (S. aureus VISA/HIP5827) of the same compound?
Answer: The MIC was 0.78 µM (≈ 1.3 µg/mL).

Question: And the “MIC-fold improvement vs. vancomycin” value (S. aureus VISA/HIP5827)?
Answer: Its value is 8.

Question: What about the MIC (S. aureus VRSA) of the same compound?
Answer: Its MIC is 1.56 µM (≈ 2.6 µg/mL).

Question: And the “MIC-fold improvement vs. vancomycin” value (S. aureus VRSA)?
Answer: Its value is 64.

Question: And the “MIC-fold improvement vs. vancomycin” value (MRSA KS2)?
Answer: Its value is 4.

Question: And the MIC (MRSA KS2)?
Answer: The MIC was 0.20 µM (≈ 0.333 µg/mL).

Question: What about the “MIC-fold improvement vs. vancomycin” value (MRSA KS6) of the same compound?
Answer: Its value is 2.

Question: What about the MIC (MRSA KS6) of the same compound?
Answer: Its MIC is 0.39 µM (≈ 0.65 µg/mL).

Question: And the “MIC-fold improvement vs. vancomycin” value (MRSA KS89)?
Answer: Its value is 4.

Question: What about the MIC (MRSA KS89) of the same compound?
Answer: The MIC was 0.20 µM (≈ 0.333 µg/mL).

Question: What about the “MIC-fold improvement vs. vancomycin” value (MRSA KS1) of the same compound?
Answer: Its value is 4.

Question: And the MIC (MRSA KS1)?
Answer: Its MIC is 0.20 µM (≈ 0.333 µg/mL).

Question: What does the source list for `CNC(CC(C)C)C(=O)NC1C(=O)NC(CC(N)=O)C(=O)NC2C(=O)NC3C(=O)NC(C(=O)NC(C(=O)NCC(=O)Nc4ccc(-c5cn(-c6ccc(C)cc6)nn5)cc4)c4cc(O)cc(O)c4-c4cc3ccc4O)C(O)c3ccc(c(Cl)c3)Oc3cc2cc(c3OC2OC(CO)C(O)C(O)C2OC2CC(C)(N)C(O)C(C)O2)Oc2ccc(cc2Cl)C1O` (centres unmarked) [Vanc-76]?
Answer: MIC (E. faecalis VSE 1): 0.78 µM (≈ 1.36 µg/mL); MIC-fold improvement vs. vancomycin (E. faecalis VSE 1): 2; MIC (E. faecalis VRE 6): 1.56 µM (≈ 2.71 µg/mL); MIC-fold improvement vs. vancomycin (E. faecalis VRE 6): 128; MIC (E. faecalis VRE 53): 3.13 µM (≈ 5.44 µg/mL); MIC-fold improvement vs. vancomycin (E. faecalis VRE 53): 128; MIC (E. faecalis VRE 29): 3.13 µM (≈ 5.44 µg/mL); MIC-fold improvement vs. vancomycin (E. faecalis VRE 29): 128; MIC (E. faecalis VRE 37): 3.13 µM (≈ 5.44 µg/mL); MIC-fold improvement vs. vancomycin (E. faecalis VRE 37): 128; IC50 [1]: 11 ± 7 µM; IC50 [2]: 3.2 ± 0.6 µM; IC50 [3]: 17 ± 2 µM; IC50 [4]: 10 µM; MIC [5]: 0.39 µM (≈ 0.678 µg/mL); MIC-fold improvement vs. vancomycin [5]: 2; MIC (S. aureus VISA/HIP5827): 0.78 µM (≈ 1.36 µg/mL); MIC-fold improvement vs. vancomycin (S. aureus VISA/HIP5827): 8; MIC (S. aureus VRSA): 0.78 µM (≈ 1.36 µg/mL); MIC-fold improvement vs. vancomycin (S. aureus VRSA): 128; MIC-fold improvement vs. vancomycin (MRSA KS2): 4; MIC (MRSA KS2): 0.20 µM (≈ 0.348 µg/mL); MIC-fold improvement vs. vancomycin (MRSA KS6): 4; MIC (MRSA KS6): 0.20 µM (≈ 0.348 µg/mL); MIC-fold improvement vs. vancomycin (MRSA KS89): 4; MIC (MRSA KS89): 0.20 µM (≈ 0.348 µg/mL); MIC-fold improvement vs. vancomycin (MRSA KS1): >8; MIC (MRSA KS1): <0.10 µM

Reference: publication PMC6001238, “Iterative Chemical Engineering of Vancomycin Leads to Novel Vancomycin Analogs With a High in Vitro Therapeutic Index” (Frontiers in Microbiology, 2018)
